The values below come from publication PMC10746708, “A small molecule iCDM-34 identified by in silico screening suppresses HBV DNA through activation of aryl hydrocarbon receptor” (Cell Death Discovery, 2023).

Structures are written as SMILES.

One test deals with HCV replicon cells. Briefly: HCV replicon luciferase assay. Format: cell-based. To be noted: 0.05–30 µM, 3 days. How it is done: HCV replicon cells were plated on clear and white 96-well plates (TPP, 92096 and Greiner Bio-one, 655083) in DMEM, high glucose, GlutaMAX Supplement (Thermo Fisher Scientific, Waltham, MA, USA) containing 10 % fetal bovine serum, penicillin, and streptomycin. After 1 day, the cells were treated with 0.05–30 µM of iCDM-17 and iCDM-34 for 3 days. The quantity of HCV replicons was measured by a luciferase assay using Steady-Glo Luciferase Assay System (Promega, Madison, WI, USA). The cell viability was measured by XTT assay using Cell proliferation kit II (Roche, Mannheim, Germany) according to the established protocol.

Another test deals with CDK1/2. Put plainly: CDK1/2 mRNA qPCR in HepG2-NTCP-C4 cells. It is filed as cell-based, human. Conditions: 30 μM. As for the experimental part:
HepG2-NTCP-C4 cells were plated on a 96-well plate in DMEM/F12 and GlutaMAX Supplement (Thermo Fisher Scientific) containing 10% fetal bovine serum, 10 mM HEPES, 5 μg/ml insulin, […] hydrocortisone, 200 U/ml penicillin, and 200 μg/ml streptomycin. After 1 day, the cells were treated with 30 μM iCDM-17 and iCDM-34 for 3, 8, 24 h. Total RNA was purified form the cells using Agencourt RNA advance (Beckman Courter). cDNA was synthesized using PrimeScript RT master mix (Takara Bio). CDK1, CDK2, β-actin mRNA amount was quantified by qPCR.
mRNA expression levels were measured by qPCR using specific primers or sets of specific primers and probe. RNA was reverse transcribed using PrimeScript RT Master Mix (Takara Bio, Shiga, Japan) to synthesize complementary DNA (cDNA). OAS1,glyceraldehyde 3-phosphate dehydrogenase (GAPDH), β-actin mRNA expression levels were measured using specific primers and TB Green Premix Ex Taq II (Takara Bio). AhR (Hs00169233_m), CDK1 (Hs00938777_m), CDK2 (Hs01548894_m) mRNA expression levels were measured using specific probe and primer sets (Thermo Fisher Scientific, Waltham, MA, USA) and Probe qPCR mix (Takara Bio) in a CFX96 Touch Real-Time PCR Detection System (Bio-Rad Laboratories, Hercules, CA, USA). […] Expression levels were determined using the 2^–ΔΔCt method and were normalized to endogenous β-actin mRNA expression levels.
Background: Real-time PCR tracks product formation cycle by cycle.

The subject of test [1] is promoter of hypoxia inducible factor (HIF). Further details: method as in PMID 34492592. Conditions: cited from earlier work.
Test [2] concerns HBV genotype C. Briefly: Anti-HBV activity in human hepatocyte-chimeric mice (liver HBV DNA). It is filed as in vivo, human hepatocyte-chimeric mice (PXB-mice). To be noted: 21 days. As for the experimental part:
PXB-mice (human liver chimeric cDNA-uPA^wild/+/SCID male mice) were generated by PhoenixBio. HBV genotype C was then inoculated into the mice via i.v.. After attaining 1.2 × 10^8–3.5 × 10^8 copies/mL of the serum HBV DNA levels, vehicle (10% 2-hydroxypropyl-beta-cyclodextrin and 10% polyethylene glycol 300) or 1 mg/kg iCDM-34 was i.v. injected with or without administration of 0.03 mg/kg ETV orally once a day for 21 days (n = 4). DNA was purified from the liver and its concentration was measured using NanoDrop Spectrophotometer (Thermo Fisher Scientific), followed by measurement of HBV DNA levels by qPCR according to a previously established method. The experimental procedures using the PXB-mice was approved by the Animal Ethics Committee of PhoenixBio.

The next test has as its system HBV-infected PXB cells. Put plainly: Microarray gene expression analysis of HBV-infected PXB cells. Format: cell-based, human. As for the experimental part: PXB cells cultured in 24-well plates were infected with three genome equivalents per cell of HBV C_AT. After 24 days of infection, the cells were treated with 0.3 and 30 µM iCDM-34 and 1,000 IU/mL IFN-α (Sumitomo Dainippon Pharma, Osaka, Japan) for 7 days (n = 3). Total RNA was extracted from the treated cells and subjected to microarray analysis. The raw and normalized data were uploaded to NCBI Gene Expression Omnibus (GSE180646).
To explore the biological interpretation of the transcriptome data, the canonical pathways and upstream causal networks were identified using knowledge-based functional analysis software from Ingenuity Pathways Analysis (IPA; Ingenuity Systems, Redwood City, CA, USA). […] A statistical measure of the IPA analysis is the activation z-score, which can be used to identify likely regulating molecules based on a statistically significant pattern match of up- and downregulation, and to predict the activation state (either activated or inhibited) of a putative regulator [37]. An absolute value of z-score more than 2 was considered significant.

Test [3] addresses interaction between HBx and DNA binding protein 1 (UniProt P03165+Q16531). Briefly: HBx - DNA binding protein 1 interaction. To be noted: data not shown.
The subject of test [4] is HBV genotype C. Put plainly: HBsAg and HBeAg in culture medium by ELISA. Format: cell-based. To be noted: 30 µM, 7 days. How it is done: PXB cells were plated on 96-well plate and infected with three genome equivalents per cell of HBV C_AT [33], and the medium was changed every 3 or 4 days. […] After treatment with these compounds, cellular DNA, medium DNA, and total RNA were automatically purified as per our previously established protocol. RNA purification of total RNA from cultured cells in the 24-well plate was performed using the RNeasy Mini Kit (Qiagen, Germantown, MD, USA) according to the manufacturer’s instructions.
HBsAg and HBeAg levels in the cell culture medium were measured using Enzygnost HBsAg 6.0 and Enzygnost HBe monoclonal (Siemens, Munich, Germany), respectively, according to the manufacturer’s instructions.
A general note: In an ELISA, binding on a coated surface is turned into a signal by an enzyme label.

The next test deals with phospho-SAMHD1. Put plainly: Western blotting of phospho-SAMHD1 in HepG2-NTCP-C4 cells. Conditions: 30 μM, 1 day. It is filed as cell-based, human. How it is done: HepG2-NTCP-C4 cells were treated with 30 μM iCDM-17 and iCDM-34 for 1 day. The cells were lyzed with 20 mM TrisHCl pH 7.5 containing 100 mM NaCl, 10 mM EDTA, 1% TritonX-100, 1% Sodium deoxycholate, PhosSTOP (Roche), Complete EDTA free. The lysates were sonicated 30 s and mixed for 1 h with rotation at 4 °C. The lysates were centrifuged at 15,000 rpm for 10 min at 4 °C. The supernatants were analyzed by Western blotting using anti-phospho-SAMHD1 (Thr592) (Cell signaling technology, 89930, 1/1000), anti-SAMHD1 (Cell signaling technology, 49158, 1/1000), and β−actin (Santa Cruz, 1/1000).
For orientation: Immunoblotting shows a protein as a band on a membrane.

Sequence of interaction between HBx and DNA binding protein 1 (Q16531 whole entry): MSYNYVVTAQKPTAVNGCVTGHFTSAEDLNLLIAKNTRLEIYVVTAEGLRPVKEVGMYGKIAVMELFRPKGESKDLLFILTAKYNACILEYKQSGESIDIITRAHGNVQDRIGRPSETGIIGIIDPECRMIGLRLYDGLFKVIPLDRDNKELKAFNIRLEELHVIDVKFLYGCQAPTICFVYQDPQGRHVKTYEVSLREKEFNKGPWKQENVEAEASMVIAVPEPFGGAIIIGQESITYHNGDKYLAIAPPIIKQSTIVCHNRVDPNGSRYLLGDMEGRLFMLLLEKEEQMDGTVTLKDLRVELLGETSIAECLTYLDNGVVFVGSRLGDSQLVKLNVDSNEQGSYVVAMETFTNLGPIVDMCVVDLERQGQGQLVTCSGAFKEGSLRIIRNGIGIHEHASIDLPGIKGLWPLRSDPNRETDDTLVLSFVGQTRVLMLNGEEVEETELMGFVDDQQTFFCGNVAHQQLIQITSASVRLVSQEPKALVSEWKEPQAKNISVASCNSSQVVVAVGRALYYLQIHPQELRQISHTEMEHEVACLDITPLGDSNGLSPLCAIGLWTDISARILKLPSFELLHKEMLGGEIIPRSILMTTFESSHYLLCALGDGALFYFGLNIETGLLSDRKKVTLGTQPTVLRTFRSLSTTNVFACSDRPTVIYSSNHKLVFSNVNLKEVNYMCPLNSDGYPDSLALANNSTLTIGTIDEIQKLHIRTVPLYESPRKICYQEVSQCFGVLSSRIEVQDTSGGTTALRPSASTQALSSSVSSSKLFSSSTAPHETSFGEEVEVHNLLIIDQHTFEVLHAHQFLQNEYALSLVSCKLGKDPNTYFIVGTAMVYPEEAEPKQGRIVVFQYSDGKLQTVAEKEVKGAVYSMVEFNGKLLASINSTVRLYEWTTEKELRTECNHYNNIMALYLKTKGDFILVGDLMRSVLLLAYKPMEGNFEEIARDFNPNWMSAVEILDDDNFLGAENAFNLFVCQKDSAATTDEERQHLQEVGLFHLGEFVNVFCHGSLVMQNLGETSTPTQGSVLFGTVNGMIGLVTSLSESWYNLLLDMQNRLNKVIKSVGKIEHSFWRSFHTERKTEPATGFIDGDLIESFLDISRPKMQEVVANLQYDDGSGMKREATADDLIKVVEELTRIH
Sequence of interaction between HBx and DNA binding protein 1 (P03165 whole entry): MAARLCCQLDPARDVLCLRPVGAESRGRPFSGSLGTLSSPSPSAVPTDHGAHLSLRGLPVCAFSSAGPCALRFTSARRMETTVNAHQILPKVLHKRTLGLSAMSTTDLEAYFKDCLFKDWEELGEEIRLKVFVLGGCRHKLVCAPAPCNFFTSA

Take `O=C(Nc1ccc(Br)cc1)c1ccn(Cn2cc([N+](=O)[O-])cn2)n1` [iCDM-34]: the “HCV replication (replicon luciferase)” value in the test on HCV replicon cells is recorded as “suppressed”. Moreover, the “CDK2 mRNA expression levels” value with CDK1/2 (after 3 and 8 h) was “significantly suppressed”. In the test on CDK1/2 (after 8 and 24 h), the “CDK1 mRNA levels” value is given as “significant suppression”. Further, the “suppression of HIF promoter” value in test [1] is “suppress”. Moreover, the “HBV DNA in the liver, single agent” value in the test with HBV genotype C [2] (1 mg/kg i.v. once a day, alone) was “did not reduce”. Besides, the “HBV DNA in the liver, combination with ETV compared with ETV alone” value with HBV genotype C [2] (1 mg/kg i.v. plus ETV 0.03 mg/kg p.o. once a day) was “drastically suppressed”. In addition, in the test with HBV-infected PXB cells, the “expression of ADH1B, G6PC, ADH1A, TAT, SLC38A3, and SLC22A7” value is given as “suppressed”; the “expression of CYP1A1, CYP1A2, CYP4A11, CYP1B1, AKR1B15, and AKR1B10” value is given as “upregulated”. The “inhibition of interaction between HBx and DNA binding protein 1” value in test [3] is “did not inhibit”. In the test with HBV genotype C [4], the HBeAg in medium entry was “inhibited” and the HBsAg in medium entry is recorded as “inhibited”. Moreover, the phospho-SAMHD1 levels result with phospho-SAMHD1 was “lower than pre-treatment levels”.
